Measured values from ChEMBL document CHEMBL1201862, “PubChem BioAssay data set” (2004).
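Method: 48-hour compound exposure of cells in 96-well plates, five concentrations, linear interpolation of endpoints. GI50 is the concentration that inhibits growth by half.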 Activity calls are given as the source filed them. Cut-off read from the data, not from the text of the source: active = GI50 up to about 1.1 µM and inactive = higher.

How the values were obtained:
Test in all cases: inhibition of tumour cell growth, NCI panel, 48 h
NCI-H23 = tested on: NCI-H23
RPMI-8226 = tested on: RPMI-8226
U-251 = tested on: U-251
SF-295 = tested on: SF-295
M14 = tested on: M14
COLO 205 = tested on: COLO 205
OVCAR-8 = tested on: OVCAR-8
K562 = tested on: K562
OVCAR-3 = tested on: OVCAR-3
HOP-62 = tested on: HOP-62
SR = tested on: SR
UACC-62 = tested on: UACC-62
786-0 = tested on: 786-0
SK-OV-3 = tested on: SK-OV-3
EKVX = tested on: EKVX
OVCAR-4 = tested on: OVCAR-4
SF-268 = tested on: SF-268
NCI/ADR-RES = tested on: NCI/ADR-RES

Measured: GI50

O=C1C2=C(SCCS2)C(=O)c2ccccc21
inactive: NCI-H23 1.85 µM | RPMI-8226 1.79 µM | U-251 1.64 µM | SF-295 1.76 µM | M14 1.87 µM | COLO 205 1.61 µM | OVCAR-8 1.67 µM | K562 1.77 µM | OVCAR-3 1.71 µM | HOP-62 1.56 µM | SR 1.2 µM | UACC-62 1.65 µM | 786-0 1.74 µM | SK-OV-3 1.73 µM | EKVX 1.39 µM | OVCAR-4 1.65 µM | SF-268 1.66 µM

Nn1c(CCCCCCCCc2nnc(COc3ccc(Cl)cc3)n2N)nnc1COc1ccc(Cl)cc1
inactive: NCI-H23 > 100 µM | RPMI-8226 > 100 µM | U-251 > 100 µM | SF-295 > 100 µM | M14 > 100 µM | COLO 205 > 100 µM | K562 > 100 µM | UACC-62 > 100 µM | 786-0 > 100 µM | SK-OV-3 > 100 µM | EKVX > 100 µM | OVCAR-4 > 100 µM | NCI/ADR-RES > 100 µM | SF-268 > 100 µM

N#Cc1ccc(C(C2C(=O)NC(=O)NC2=O)C2C(=O)NC(=O)NC2=O)cc1
inactive: NCI-H23 > 100 µM | RPMI-8226 > 100 µM | U-251 > 100 µM | SF-295 > 100 µM | M14 > 100 µM | COLO 205 > 100 µM | OVCAR-8 > 100 µM | K562 77.1 µM | OVCAR-3 > 100 µM | HOP-62 > 100 µM | SR > 100 µM | UACC-62 > 100 µM | 786-0 > 100 µM | SK-OV-3 > 100 µM | EKVX > 100 µM | OVCAR-4 > 100 µM | SF-268 > 100 µM

CC(C)(C)C1=Cc2cc3cc(C(C)(C)C)[nH]c(=O)c3cc2S(=O)(=O)N1
inactive: NCI-H23 29.9 µM | RPMI-8226 30.3 µM | U-251 18 µM | SF-295 28.5 µM | M14 14.6 µM | COLO 205 21.5 µM | OVCAR-8 39.8 µM | K562 45.4 µM | OVCAR-3 19 µM | HOP-62 22.3 µM | SR 23.7 µM | UACC-62 18.4 µM | 786-0 26.2 µM | SK-OV-3 31.2 µM | EKVX 17.3 µM | OVCAR-4 24.6 µM | SF-268 26.1 µM

O=C(O)CCc1nn2c(nc1=O)sc1ccc3ccccc3c12
inactive: NCI-H23 > 100 µM | RPMI-8226 > 100 µM | U-251 > 100 µM | SF-295 > 100 µM | M14 > 100 µM | COLO 205 > 100 µM | OVCAR-8 > 100 µM | K562 > 100 µM | OVCAR-3 > 100 µM | HOP-62 > 100 µM | SR > 100 µM | UACC-62 > 100 µM | 786-0 > 100 µM | SK-OV-3 > 100 µM | EKVX > 100 µM | OVCAR-4 > 100 µM | SF-268 > 100 µM

Cc1ccc(-c2c(C#N)c(-c3ccccc3)n(NS(=O)(=O)c3ccc(C)cc3)c(=O)c2C#N)cc1
inactive: RPMI-8226 8.36 µM | U-251 49.5 µM | SF-295 41.3 µM | M14 74.1 µM | COLO 205 > 100 µM | OVCAR-8 41.9 µM | K562 48 µM | HOP-62 41.9 µM | UACC-62 43.8 µM | 786-0 59.4 µM | SK-OV-3 96.6 µM | EKVX 89.9 µM | OVCAR-4 43.5 µM | NCI/ADR-RES 96.4 µM | SF-268 90.8 µM

CCOC(=O)C1=C(OC(OCC)C(CC)[Se]c2ccccc2)CCC1 (centres undefined)
inactive: NCI-H23 12.5 µM | RPMI-8226 19.3 µM | U-251 11.4 µM | SF-295 16.9 µM | M14 15.1 µM | COLO 205 34.3 µM | OVCAR-8 33.2 µM | K562 44 µM | OVCAR-3 23.7 µM | HOP-62 78.5 µM | SR 19.3 µM | UACC-62 17.8 µM | 786-0 15.5 µM | SK-OV-3 92 µM | EKVX 29.2 µM | OVCAR-4 13.2 µM | SF-268 18.7 µM

S=c1oc(CCCCCCCCc2nn(CNc3ccccc3)c(=S)o2)nn1CNc1ccccc1
inactive: NCI-H23 > 100 µM | RPMI-8226 > 100 µM | U-251 > 100 µM | SF-295 > 100 µM | M14 > 100 µM | COLO 205 > 100 µM | K562 57.5 µM | HOP-62 > 100 µM | UACC-62 > 100 µM | 786-0 > 100 µM | SK-OV-3 > 100 µM | EKVX > 100 µM | OVCAR-4 > 100 µM | NCI/ADR-RES > 100 µM | SF-268 > 100 µM
